Columns and labels:
Assay type in all cases: cell-based, human
Myc targets = assay: Myc target expression after knockdown (RNA-seq, qRT-PCR, western blot); settings: LNA against EPIC1, MCF-7 cells
Description: For RNA interference, cells were transfected with 40 nM siRNA targeting EPIC1, Myc, or a control siRNA using Lipofectamine RNAiMAX (ThermoFisher, #13778150) per the manufacturer's instructions. Total RNA was isolated 72 hr later for real-time PCR analysis. The siRNA sequences are SEQ ID NOS: 4-6.
For LNA transfection, cells were transfected with 40 nM LNA oligos targeting EPIC1, and a scramble control using Lipofectamine™ RNAiMAX per the guidelines. The LNA oligos (e.g., SEQ ID NO: 9) were designed and synthesized from Exiqon.
RNA Isolation and Quantitative Real-Time PCR (qRT-PCR) Assays: Total RNA was isolated from cultured cells using an RNeasy Mini kit (Qiagen, #74104) according to the manufacturer's instructions. cDNAs were synthesized from […] of total RNA using a High-Capacity cDNA Reverse Transcription Kit (Applied Biosystems, #4368813). Real-time PCR was performed with Power SYBR Green PCR Master Mix (Applied Biosystems, #4367659) on a QuantStudio 6 Flex Real-Time PCR System (Applied Biosystems). Relative gene expression was determined by DDCt normalized to GAPDH.
Cell lysates were also treated with equal volume of 2× SDS sample buffer and resolved by SDS-PAGE under denaturing conditions and transferred onto PVDF membranes (Bio-Rad, #162-0177). […]

MCF-7 and ZR-75-1 cells = assay: Cell cycle assay (PI staining, flow cytometry); settings: LNA against EPIC1, MCF-7 cells
Description: For the cell cycle assay, cells were collected, rinsed with PBS, and fixed for a minimum of 2 hr by adding 70% ice-cold ethanol at −20° C. Cells were then sequentially washed once in PBS and BD Pharmingen stain buffer (BD Biosciences, #554656). Cell pellets were resuspended in 0.5 ml of BD Pharmingen PI/RNase staining buffer (BD Biosciences, #550825) and incubated for 15 min at room temperature (RT), and cells were immediately analyzed using an LSRFORTESSA X-20 flow cytometer (BD Biosciences). The data were analyzed with FlowJo software.

[1] = test system: MCF-7, BT-474, ZR-75-1 and A549 cells; assay: MTT growth inhibition by BET inhibitors in EPIC1 knockdown or overexpressing cells; settings: EPIC1 overexpression; MCF-7 and A549 cells
Description: For RNA interference, cells were transfected with 40 nM siRNA targeting EPIC1, or control siRNA using Lipofectamine RNAiMAX (Thermo Fisher, #13778150) per the manufacturer's instructions. For quantitative real-time PCR (qRT-PCR) analysis, total RNA was isolated 72 h later using an RNeasy Mini kit (Qiagen, #74104) according to the manufacturer's instructions; cDNAs were synthesized from 0.5 μg of total RNA using a High-Capacity cDNA Reverse Transcription Kit (Applied Biosystems, #4368813). qRT-PCR was performed with Power SYBR Green PCR Master Mix (Applied Biosystems, #4367659) on a QuantStudio 6 Flex Real-Time PCR System (Applied Biosystems). Relative gene expression was determined by ΔΔCt normalized to GAPDH.
Validation of IncRNA-drug predictive pairs in cell lines. MCF-7 cells (MCF-7/Vector and MCF-7/EPIC1) and A549 cells (A549/Vector and A549/EPIC1) stably expressing an empty vector and EPIC1 were established with retroviral particles using the previously published method. […]
The ectopic expression level of EPIC1 in stable cells was confirmed using PCR. […] The absorbance value was measured at 570 nm using an xMark Microplate Spectrophotometer (Bio-Rad) with a reference wavelength of 630 nm and the IC50 of JQ-1 and I-BET-762 on cells was calculated, respectively.

| Molecule | expression of Myc target genes (Myc targets) | cell-cycle analysis (MCF-7 and ZR-75-1 cells) | resistance to BET inhibitor promoted by EPIC1 [1] |
| --- | --- | --- | --- |
| LNA: LNA oligo targeting EPIC1, e.g. SEQ ID NO: 9 (5′-GTCGACTCCTGCCGGA-3′), designed and synthesized from Exiqon (LNA oligo from Exiqon, LNA positions not given here) | curtailed the expression of Myc target genes | significantly caused Gi arrest of MCF-7 cells | – |
| (+)-JQ1 [JQ-1] | – | – | strongly promotes iBET762 and JQ-1 resistance |
| CCNC(=O)C[C@@H]1N=C(c2ccc(Cl)cc2)c2cc(OC)ccc2-n2c(C)nnc21 [iBET762, I-BET-762 (iBET762)] | – | – | strongly promotes iBET762 and JQ-1 resistance |

From patent US11667919B2, “Targeting cancer-associated long non-coding RNAs” (University of Pittsburgh—Of the Commonwealth System of …, priority 2018, dated 2023)
